{"source": "patent US8674059B2", "about": "“Colon cancer related gene TOM34” (Oncotherapy Science, Inc., priority 2005, dated 2014)", "assay_type_in_all_cases": "cell-based, human", "key": {"TISI cells (HLA-A24/24)": {"tested_on": "TISI cells (HLA-A24/24)", "test": "In vitro CTL induction and 51Cr-release cytotoxicity assay against peptide-loaded TISI cells", "description": "Monocyte-derived dendritic cells (DCs) were used as antigen-presenting cells (APCs) to induce CTLs against peptides presented on HLA. DCs were generated in vitro as described elsewhere (Nukaya I, et al., Int J Cancer. 1999; 80(1):92-7; Tsai V, et al., J Immunol. 1997; 158(4):1796-802). Briefly, peripheral blood mononuclear cells (PBMCs) were isolated from normal volunteers ((HLA-A24) by Ficoll-Paque (Pharmacia) solution and separated by adherence to a plastic tissue culture flask (Becton Dickinson) so as to enrich them for the monocyte fraction. The monocyte-enriched population was cultured in the presence of 1,000 U/ml of GM-CSF (provided by Kirin Brewery Company) and 1,000 U/ml of IL-4 (Genzyme) in AIM-V (Invitrogen) containing 2% heat-inactivated autologous serum (AS). After 7 days in the culture, the cytokine-generated DCs were loaded with 20 μg/ml of HLA-A24-binding peptides in the presence of 3 μg/ml of β2-microglobulin for 4 hrs at 20° C. in AIM-V. These peptide-loaded DCs were then irradiated (5,500 rad) and mixed at a 1:20 ratio with autologous CD8+ T cells, obtained by positive selection with Dynabeads M-450 CD8 (Dynal) and Detachabead (Dynal). This mixture was subdivided and aliquots were incubated in 48-well plates (Corning); each well contained 1.5×10^4 peptide-loaded DCs and 3×10^5 CD8+ T cells in 0.5 ml of AIM-V/2% AS containing 10 ng/ml of IL-7 (Genzyme). Three days later, these cultures were supplemented with IL-2 (CHIRON) to a final concentration of 20 IU/ml. On day 7 and 14, the T cells were further restimulated with the autologous peptide-loaded DCs. The DCs were prepared each time by the same way as described above. Cytotoxicity was tested against peptide-loaded TISI cells after the 3rd round of peptide stimulation on day 21. […]\nTarget cells were labeled with 100 μCi of Na2^51CrO4 (Perkin Elmer Life Sciences) for 1 hr at 37° C. in a CO2 incubator. […] After 4 hrs of incubation, 0.1 ml of the supernatant was collected from each well and the radioactivity was determined with a gamma counter. […]"}, "DLD-1": {"tested_on": "DLD-1", "test": "51Cr-release cytotoxicity of CTL clones against DLD-1 cells endogenously expressing TOM34", "conditions": "DLD-1, expresses TOM34 and HLA-A24", "experimental": "(§1) Target cells were labeled with 100 μCi of Na2^51CrO4 (Perkin Elmer Life Sciences) for 1 hr at 37° C. in a CO2 incubator. Peptide-loaded target cells were prepared by incubating the cells with 20 μg/ml of the peptide for 16 hrs at 37° C. before labeling. Labeled target cells were rinsed and mixed with effector cells in a final volume of 0.2 ml in round-bottom microtiter plates. The plates were centrifuged (4 minutes at 800×g) to increase cell-to-cell contact and placed in a CO2 incubator at 37° C. After 4 hrs of incubation, 0.1 ml of the supernatant was collected from each well and the radioactivity was determined with a gamma counter. In case of evaluating cytotoxicity for target cells that endogenously express TOM34, the cytolytic activity was tested in the presence of 30-fold excess of unlabeled K562 cells to eliminate any non-specific lysis due to NK-like effectors. […]\n(§2) The percentage of specific cytotoxicity was determined by calculating the percentage of specific ^51Cr-release by the following formula: {(cpm of the test sample release−cpm of the spontaneous release)/(cpm of the maximum release−cpm of the spontaneous release)}×100. Spontaneous release was determined by incubating the target cells alone, in the absence of effector cells, and the maximum release was obtained by incubating the targets with 1N HCl. […]"}, "HT29": {"tested_on": "HT29", "test": "51Cr-release cytotoxicity of CTL clones against HT29 cells endogenously expressing TOM34", "conditions": "HT29, expresses TOM34 and HLA-A24", "experimental": "as §1, §2"}, "SNU-C2A": {"tested_on": "SNU-C2A", "test": "51Cr-release cytotoxicity of CTL clones against SNU-C2A cells (TOM34 positive, HLA-A24 negative)", "conditions": "expresses TOM34 but not HLA-A24", "experimental": "as §1, §2"}, "HT29 cells": {"tested_on": "HT29 cells", "test": "Cold target inhibition assay", "conditions": "E/T ratio 20; TISI with or without loaded peptide", "experimental": "FIG. 9 depict HLA specificity of the CTL clones raised by TOM34-299. The CTL clone raised by TOM34-299 specifically recognizes TOM34 in the HLA-A24 restricted manner. • The cold target inhibition assay was performed as described in “Materials and Methods”. HT29 cells labeled by Na2^51CrO4 were prepared as hot target, while TISI cells with or without loaded TOM34-299 peptide were used without ^51Cr labeling as cold targets. E/T ratio was fixed at 20.\nas §1"}}, "note": "Where no end group is shown, it is not given here.", "data": [{"sequence": "KLRQEVKQNL [KLRQEVKQNL]", "values": [{"measurement": "cytotoxic activity of CTL lines against the peptide-loaded target", "setting": "TISI cells (HLA-A24/24); CTL lines stimulated by the peptide, TISI loaded with peptide", "value": "potent cytotoxic activity"}, {"measurement": "cytotoxic activity of CTL lines against targets not loaded with the peptide", "setting": "TISI cells (HLA-A24/24); TISI without loaded peptide", "value": "without showing any significant cytotoxic activity"}, {"measurement": "E/T ratio at which antigen-specific cytotoxicity of CTL lines is detectable", "setting": "TISI cells (HLA-A24/24); as low as", "value": 1.2}, {"measurement": "cytotoxic activity of two CTL clones", "setting": "DLD-1", "value": "potent cytotoxic activity"}, {"measurement": "cytotoxic activity of two CTL clones", "setting": "HT29", "value": "potent cytotoxic activity"}, {"measurement": "cytotoxic activity of two CTL clones", "setting": "SNU-C2A", "value": "neither of the two CTL clones showed any relevant cytotoxic activity"}, {"measurement": "cytotoxic activity of CTL clone against HT29 in presence of cold target TISI cells", "setting": "HT29 cells", "value": "inhibited by the addition of TISI cells only when loaded with the peptide"}]}]}
